In PMC8650221 (Biochemistry, 2021):
Like-named read-outs stand apart in the source and are kept apart here.

Assays:
wild type OMPDC [1] = details: cited from earlier work; for (kcat/Km)E•Act/Kd: activated decarboxylation of FO, pH 7.0, 25 °C, I = 0.15 (NaCl); for stabilization of the transition state for OMPDC-catalyzed decarboxylation of FO by activator (ΔG^‡act): 1.0 M dianion activator
T100’A OMPDC [2] = target: T1, T100’A OMPDC (Saccharomyces cerevisiae, UniProt P03962, T100A); assay type: biochemical; details: pH 7.0, 25 °C, I = 0.15 (NaCl); for (kcat/Km)E•Act/Kd: activated decarboxylation of FO, T100’A OMPDC; for Kd: activator of T100’A OMPDC-catalyzed decarboxylation of FO
adenylate kinase = details: cited from earlier work
D37G OMPDC [3] = target: T2, D37G OMPDC (Saccharomyces cerevisiae, UniProt P03962, D37G); test: D37G variant OMPDC-catalyzed decarboxylation of FO, dianion-activated; assay type: biochemical
wild type OMPDC [4] = details: cited from earlier work
D37G OMPDC [5] = target: T2, D37G OMPDC; assay type: biochemical; details: phosphite dianion activation of D37G-catalyzed decarboxylation of EO, pH 7.0, 25 °C, I = 0.14 (NaCl)
T100’A OMPDC [6] = target: T1, T100’A OMPDC; test: T100’A variant OMPDC-catalyzed decarboxylation of OMP; assay type: biochemical
wild type OMPDC [7] = details: cited from earlier work; remark: listed apart in the source
D37G OMPDC [8] = target: T2, D37G OMPDC; test: D37G variant OMPDC-catalyzed decarboxylation of OMP; assay type: biochemical

T1 sequence (P03962 whole entry T100A): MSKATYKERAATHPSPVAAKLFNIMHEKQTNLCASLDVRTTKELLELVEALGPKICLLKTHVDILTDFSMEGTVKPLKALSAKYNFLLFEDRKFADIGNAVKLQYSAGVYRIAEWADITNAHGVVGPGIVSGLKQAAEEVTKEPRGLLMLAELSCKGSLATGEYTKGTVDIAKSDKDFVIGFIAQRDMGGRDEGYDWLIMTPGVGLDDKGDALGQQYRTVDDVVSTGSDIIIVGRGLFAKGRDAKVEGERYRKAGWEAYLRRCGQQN
T2 sequence (P03962 whole entry D37G): as the sequence (P03962 whole entry T100A) above, with D37G, A100T counted along it

Row | Structure (SMILES) | (kcat/Km)E•Act/Kd (wild type OMPDC [1]) | (kcat/Km)E•Act/Kd (T100’A OMPDC [2]) | Kd (T100’A OMPDC [2]) | stabilization of the transition state for OMPDC-catalyzed decarboxylation of FO by activator (ΔG^‡act) (wild type OMPDC [1]) | other results
1 | O=P(O)(O)OCC(O)CO (racemic) [DLG3P, D,L-glycerol 3-phosphate] | 1.3 × 10^−2 M^−2 s^−1 | (1.7 ± 0.2) × 10^−3 M^−2 s^−1 | 94 ± 8 mM |  | 
2 | Nc1c2ncnc-2ncn1[C@@H]1OC[C@@H](O)[C@H]1O [(1-β-D-erythrofuranosyl)adenine] |  |  |  |  | transition state stabilization by interactions with the substrate piece (adenylate kinase; phosphoryl transfer from ATP to phosphite dianion): ≥ 8.7 kcal/mol
3 | Nc1ncnc2c1ncn2[C@@H]1O[C@H](COP(=O)(O)O)[C@@H](O)[C@H]1O [AMP] |  |  |  |  | transition state stabilization by interactions with the adenosyl group (adenylate kinase; enzyme-catalyzed phosphoryl transfer from ATP (to AMP)): ≥ 14.7 kcal/mol
4 | O=P(O)(O)OC[C@@H](O)[C@@H](O)CO [DE4P, D-erythritol 4-phosphate] | 6.0 × 10^−1 M^−2 s^−1 | (5.4 ± 0.1) × 10^−3 M^−2 s^−1 |  | 9.0 kcal/mol | Kd (D37G OMPDC [3]): 3 mM
5 | O=P(O)(O)OCC(O)CO [DG3P, D-glycerol 3-phosphate] | 2.5 × 10^−2 M^−2 s^−1 |  |  | 7.2 kcal/mol | 
6 | O=[PH](O)O [HPO3^2−, phosphite dianion] | 8.4 × 10^−4 M^−2 s^−1 | (1.87 ± 0.03) × 10^−4 M^−2 s^−1 | Kd >> [HPO3^2−]^e | 5.2 kcal/mol | ΔG^‡act, stabilization of the decarboxylation transition state by phosphite dianion (wild type OMPDC [4]; decarboxylation of EO, wild type OMPDC): 7.7 kcal/mol; Kd (wild type OMPDC [4]; productive (observed) binding of phosphite dianion activator to wild type OMPDC or variant enzymes): ~100 mM; Kd (D37G OMPDC [5]): 5.1 mM; Kd (D37G OMPDC [3]; activator of D37G OMPDC-catalyzed decarboxylation of FO, pH 7.0, 25 °C, I = 0.15 (NaCl)): 4.7 mM; Kd (D37G OMPDC [3]; phosphite dianion activation of D37G-catalyzed decarboxylation of FO): 4.7 mM
7 | O=P(O)(O)OC[C@H](O)CO [LG3P, L-glycerol 3-phosphate] | 1.0 × 10^−3 M^−2 s^−1 | (5.3 ± 0.2) × 10^−4 M^−2 s^−1 | Kd >> [LG3P]^e |  | 
8 | O=C(O)c1cc(=O)[nH]c(=O)n1[C@@H]1O[C@H](COP(=O)(O)O)[C@@H](O)[C@H]1O [OMP, orotidine 5’-monophosphate] |  |  |  |  | intrinsic dianion binding energy (T100’A OMPDC [6]; T100’A OMPDC, calculated from ratio of kcat/Km for OMP and EO (Table 1)): 10.8 kcal/mol; decrease in transition state stabilization by protein interactions with the substrate dianion (T100’A OMPDC [6]; effect of T100’A substitution, decarboxylation of OMP): 0.9 kcal/mol; stabilization of the Michaelis complex (wild type OMPDC [7]; Michaelis complex of OMPDC to OMP): 8 kcal/mol; transition state stabilization (wild type OMPDC [7]; OMPDC-catalyzed decarboxylation of OMP): 31 kcal/mol; intrinsic dianion binding energy (wild type OMPDC [7]; wild type OMPDC, from ratio of kcat/Km for OMP and EO): 11.7 kcal/mol; intrinsic dianion binding energy (D37G OMPDC [8]; D37G OMPDC, calculated from ratio of kcat/Km for OMP and EO (Table 1)): 11.0 kcal/mol; decrease in transition state stabilization by protein interactions with the substrate dianion (D37G OMPDC [8]; effect of D37G substitution, decarboxylation of OMP): 0.7 kcal/mol
